# Measured values as given in US12458612B2, “Combination therapy comprising compounds of formula (I) and GLP-1 receptor agonists” (GENFIT, priority 2019, dated 2025).
# Experiments:
# [1] = system: NASH-B6 mice; experiment: Body weight, adiposity and food intake, 8 weeks in NASH-B6 mice (Example 6); format: in vivo; details: liraglutide 0.02 mg/kg/day, 8 weeks (FIG. 13B)
# Procedure: Male C57BL/6NTac mice (Taconic, USA) were fed with the GAN diet (D09100310 Research Diet) 31 weeks prior to study start to induce NASH pathology (NASH-B6 model). Prior to treatment, blood was collected by retro-orbital sinus puncture after a 6 h-fasting period to measure plasma ALT, AST, TIMP Metallopeptidase Inhibitor 1 (TIMP1, a surrogate marker of liver fibrosis). Blood glucose was measured directly from the tail vein using a WellionVet glucometer (CALEA) after a 6 h-fasting period. Ketone bodies (KB) was also measured directly from the tail vein using a FreeStyle Optium Neo ketometer. Mice were randomized into treatment groups (n=10/group) based on body weight, glycemia, ketonemia and plasma ALT, AST and TIMP1. They received either vehicles, elafibranor (3 mg/kg/day, per os), liraglutide (0.01 mg/kg, BID, SC) or both elafibranor and liraglutide for 8 weeks. To avoid GLP-1 receptor agonist-induced hypophagia, an up-titration protocol was applied for liraglutide during the first 3 weeks of treatment (starting with 0.001 mg/kg BID). Vehicle-dosed chow-fed mice served as additional controls (R03-10 U8211G10R, SAFE).
# Body weight and food intake were monitored each day during the treatment period. On the last day of treatment, serum samples were obtained after retro-orbital sinus puncture blood sampling and mice were sacrificed. […]
# [2] = system: DIO-NASH mice; experiment: Insulinemia (plasma insulin), 40 days in DIO-NASH mice (Example 1); format: in vivo; details: ELA 10 mg/kg/day, SEMA 10 nmol/kg/day, 40 days (FIG. 5)
# Procedure: (§1) The effects of elafibranor alone, semaglutide alone and the combination of both were assessed in DIO-NASH mice (C57BL6JRj mice fed with a Amylin Liver NASH Model diet (AMLN) (Research Diet, 40% fat (18% trans-fat), 40% carbohydrate (20% fructose), and 2% cholesterol) (36 weeks prior to study start). 41 weeks old male DIO-NASH mice were fed a vehicule (n=12), or vehicule supplemented with elafibranor (10 mg/kg/day), or semaglutide alone (10 nmol/kg) (titration to final dose over 5 days using increments of 0.08 mg/mL) or in combination (n=12 per group).
# (§2) Sampling from tail vein were done during the protocol for, blood glucose, plasma insulin, alanine transaminase, aspartate transaminase, triglycerides, total cholesterol dosages.
# The plasmatic insulin was measured using a solid phase two-site enzyme immunoassay from Crystal Chem Inc. (cat #90010). Briefly, 95 μL of guinea-pig anti-insulin serum and 5 μL of diluted sample (or standard) were dispensed per well into a 96-well plate. […] The reaction was then stopped by adding 100 μL of stop solution and absorbance was immediately measured at 450 nm (subtracting wave length: 630 nm). The intensity of the coloration was proportional to the amount of insulin initially present in the sample and was calculated using a standard serum. […]
# [3] = system: DIO-NASH mice; experiment: Hepatic triglyceride content, 40 days in DIO-NASH mice (Example 1); format: in vivo; details: ELA 10 mg/kg/day, SEMA 10 nmol/kg/day, 40 days (FIG. 3)
# Procedure: as §1
# On the last day of treatment, plasma samples were obtained after cardiac puncture blood sampling and mice were sacrificed. The liver was rapidly excised for biochemical and histological analyses.
# Approximately 100 mg of frozen liver tissue were homogenized with a tissue homogenizer (Precellys®24, Bertin Technologies, France) in 150 mM NaCl buffer, containing 15.4 mM NaN3. Lipid fractions in homogenates were extracted with chloroform—methanol (2:1, v/v) followed by measurement of the triglycerides (Biolabo cat #80019).
# [4] = system: DIO-NASH mice; experiment: Plasma ALT and CRP in DIO-NASH mice, low/high dose semaglutide (Example 7); format: in vivo
# Procedure: (§3) The effects of elafibranor alone, semaglutide (low and high doses) alone and their combination were assessed in DIO-NASH mice (C57BL6JRj mice fed with a Amylin Liver NASH Model diet (AMLN) (Research Diet, 40% fat (18% trans-fat), 40% carbohydrate (20% fructose), and 2% cholesterol) (35 weeks prior to study start). Mice with biopsy confirmed steatosis (score≥2) and fibrosis (score≥1) were randomized into treatment groups (n=12 per group). Mice received either vehicles, elafibranor (10 mg/kg/day, per os), low-dose semaglutide (0.3 nmol/kg/day, SC), high-dose semaglutide (10 nmol/kg/day, SC) or elafibranor (10 mg/kg/day) and semaglutide (0.3 nmol/kg/day) in combination.
# On the last treatment day, plasma samples were obtained after cardiac puncture blood sampling and mice were sacrificed. The liver was rapidly excised for transcriptomic analyses.
# Alanine aminotransferase (ALT) level was measured using Cobas™ C-501 autoanalyzer according to the manufacturer's instructions. C-reactive protein (CRP) concentration was measured by ELISA (Mouse C-Reactive Protein/CRP Immunoassay MCRP00, R&D Systems).
# [5] = system: DIO-NASH mice; experiment: Glycemia (plasma glucose), 40 days in DIO-NASH mice (Example 1); format: in vivo; details: ELA 10 mg/kg/day, SEMA 10 nmol/kg/day, 40 days (FIG. 4)
# Procedure: as §1, §2
# The plasma glucose level was measured using the Randox kit for Daytona automate (Randox, cat #GL 3815) according to the manufacturer's recommendations. This method was based on a colorimetric assay without any deproteinization of the sample. Briefly, glucose oxidase digestion of the sample led to hydrogen peroxide synthesis. In the presence of phenol and 4-aminophenazone, the hydrogen peroxide was catalyzed by a peroxidase and formed a dye: the quinoneimin. The coloration intensity was directly proportional to the glucose concentration and was measured at 505 nm. Results were expressed in mg/dL.
# [6] = system: DIO-NASH mice; experiment: Histological assessment of NASH, 12 weeks in DIO-NASH mice (Example 3); format: in vivo; details: monotherapy low dose ELA 10 mg/kg/day or SEMA 0.3 nmol/kg/day
# Procedure: Male C57BL/6JRj mice were fed with the AMLN diet 35 weeks prior to study start (DIO-NASH model). Mice with biopsy confirmed steatosis (score ≥2) and fibrosis (score ≥1) were randomized into treatment groups (n=12-14 per group). Mice received either vehicles, elafibranor (10 mg/kg/day, per os), semaglutide (0.3 nmol/kg/day, SC) or both elafibranor and semaglutide for 12 weeks. Suboptimal drug doses were used in this study. To avoid SEMA-induced hypophagia, an up-titration protocol was applied during the first 3 weeks of treatment.
# On the last day of treatment, plasma samples were obtained after cardiac puncture blood sampling and mice were sacrificed. The liver was rapidly excised for histology and biochemical and transcriptomic analyses.
# Liver sections were prepared and stained with hematoxylin eosin safranin (HES) as described in Example 1. The histological features of NASH (steatosis, ballooning, lobular inflammation and fibrosis) were assessed using the NASH Clinical Research Network Scoring System by operators blinded to the experimental groups (Kleiner 2005, Brunt 1999). Steatosis score, activity index (hepatocyte ballooning+lobular inflammation) and NAFLD activity score (NAS) were calculated. Number of inflammatory foci was counted per field using a 200× magnification.
# [7] = system: DIO-NASH mice; experiment: Liver transcriptomic and gene ontology analysis in DIO-NASH mice (Example 7); format: in vivo
# Procedure: as §3, with “combination. […]” for “combination.”
# Total RNA was isolated from mice livers using Nucleospin® 96 RNA kit (Macherey Nagel) following manufacturer's instructions. […] The parameters used are an end minimum quality level of 25 and a minimum read length of 50. The unaligned reads were aligned to the Mus musculus mm10 reference genome using the software STAR version 2.5.3. […] Briefly, the count matrix produced by FeatureCounts was analyzed by the DESeqDataSetFromMatrix( ) function followed by the DEseq( ) function from the DESeq2 library. […]
# Each metascape analysis was exported as Excel file. The files were imported in R V using the read_excel function from the readxl library (version 1.3.1). […]
# [8] = system: TNFα secretion in LPS-activated macrophages (THP-1); experiment: TNFα secretion in LPS-activated THP-1 macrophages, combination matrix, HTRF (Example 4); format: cell-based, Human; details: GLP-1 receptor agonist alone; LPS-activated THP1 macrophages (FIGS. 11A-B)
# Procedure: Human_THP-1 monocytes were seeded at a density of 25,000 cells per well in 384-well plate in RPMI1640 (Gibco, 21875) supplemented with 10% FBS, 1% Penicillin-streptomycin (Gibco, 15140122) and 25 mM Hepes (Gibco, 15630080) and differentiated into macrophages using PMA (Phorbol 12-myristate 13-acetate, Sigma, P8139) at the final concentration of 100 ng/ml for 24 hours.
# A 2 component combination matrix was prepared. ELA and GLP-1 receptor agonists stocks were serially diluted in DMSO in 3-points series in a row (ELA) and a 8-points series in a column of a 96-well plate for GLP1RA. Subsequently, the 3×8 combination matrix was generated by 1:1 mixing of all single agent concentrations.
# After 24 hrs with PMA, medium was removed, and replaced by serum free RPMI. […]
# Synergism between compounds was determined using the Excess Over Bliss (EOB) method.
# The values obtained in the TNFα HTRF assay were first transformed into percentage inhibitions over LPS control. Then, using these percentage inhibitions, EOB were calculated. Expected Bliss additivism score (E) was firstly determined by the equation: E=(A+B)−(A×B) where A and B are the percentage inhibition of elafibranor (A) and GLP-1 analogue (B) at a given dose.
# The total Bliss score was calculated by addition of all EOB.
molecule,measurement,setting,value
CCCCCCCCCCCCCCCC(=O)N[C@@H](CCC(=O)NCCCC[C@H](NC(=O)[C@H](C)NC(=O)[C@H](C)NC(=O)[C@H](CCC(N)=O)NC(=O)CNC(=O)[C@H](CCC(=O)O)NC(=O)[C@H](CC(C)C)NC(=O)[C@H](Cc1ccc(O)cc1)NC(=O)[C@H](CO)NC(=O)[C@H](CO)NC(=O)[C@@H](NC(=O)[C@H](CC(=O)O)NC(=O)[C@H](CO)NC(=O)[C@@H](NC(=O)[C@H](Cc1ccccc1)NC(=O)[C@@H](NC(=O)CNC(=O)[C@H](CCC(=O)O)NC(=O)[C@H](C)NC(=O)[C@@H](N)Cc1cnc[nH]1)[C@@H](C)O)[C@@H](C)O)C(C)C)C(=O)N[C@@H](CCC(=O)O)C(=O)N[C@@H](Cc1ccccc1)C(=O)N[C@H](C(=O)N[C@@H](C)C(=O)N[C@@H](Cc1c[nH]c2ccccc12)C(=O)N[C@@H](CC(C)C)C(=O)N[C@H](C(=O)N[C@@H](CCCNC(=N)N)C(=O)NCC(=O)N[C@@H](CCCNC(=N)N)C(=O)NCC(=O)O)C(C)C)[C@@H](C)CC)C(=O)O [liraglutide],hypophagia (energy consumption),[1],no hypophagia effect
semaglutide: commercially available GLP-1 receptor agonist,insulinemia,[2],significant beneficial effect
same,liver fat / hepatic triglyceride content,[3],significant beneficial effect
same,decrease of plasma CRP relative to AMLN-fed vehicle group,[4]; high-dose semaglutide 10 nmol/kg/day SC (FIG. 18),43%
same,effect on plasma ALT,[4]; low dose semaglutide 0.3 nmol/kg/day SC (FIG. 17),inefficient
same,effect on plasma CRP,[4]; low-dose semaglutide 0.3 nmol/kg/day SC (FIG. 18),inefficient
same,glycemia,[5],no beneficial effect
same,mice showing NAS reduction beyond 1 stage,[6],None of the mice
same,"hepatic gene signature (gene ontology: inflammatory response, cytokine production, immune cell activation and migration)",[7]; high-dose semaglutide 10 nmol/kg/day (FIG. 19),reverted the pathological signature
same,hepatic gene signature (gene ontology: inflammatory pathways),[7]; low-dose SEMA 0.3 nmol/kg/day (FIG. 19),inefficient
same,"maximal effect, TNFα inhibition",[8],29%
